Experiment [1] has as its system IKZF1, ASS1 and SALL4 recruitment to CRBN. Briefly: Recruitment assessment: recruitment of any tested substrate from among IKZF1, ASS1 and SALL4. The experiment is classed as cell-based. Conditions: any tested substrate at any tested compound concentration. As to the method:
(§1) In this experimental set-up, cells were transfected with a construct encoding a CRBN-fusion protein and another one encoding a substrate-fusion protein. Test compound activity was assessed with increasing concentrations of test compounds (dose-response studies) to monitor the ability to promote CRBN-ligand-induced protein interaction.
(§2) Full size proteins were fused for each of the target proteins tested, except in the case of IKZF1 where isoform 7 was used. For the study, the following were used: IKZF1 recruitment: pSEL-CRBN+pMG1-IKZF1(isoform 7); ASS1 recruitment: pSEL-CRBN+pMG1-ASS1. SALL4 recruitment: pSEL-SALL4+pMG1-CRBN. […] Luciferase activity was measured 24 hours after test compound treatment using the Luciferase Assay System kit (PROMEGA, Madison, Wis.) with an Ensight plate reader (PERKIN ELMER LIFE SCIENCES, Waltham, Mass.). Data points depicted fold induction of the average luciferase activity of triplicate samples from EPO+test compound treated cells versus EPO only treated cells. Error bars represent standard deviations. Curves were fit using 4-parameter nonlinear regression in […] PRISM software.

For experiment [2], the target named is T1, SALL4 recruitment to CRBN (Homo sapiens, UniProt Q96SW2).
T1 construct: Full size proteins were fused for each of the target proteins tested, except in the case of IKZF1 where isoform 7 was used; expressed in transfected cells; host or cells: HEK293T
Briefly: Recruitment Assay (MAPPIT-like): SALL4 recruitment to CRBN. The experiment is classed as cell-based. Conditions: HEK293T cells; pSEL-SALL4+pMG1-CRBN; luciferase 24 hours after treatment; read-out: EC50_SALL4. Here is the method:
as §1, §2

T1 sequence (Q96SW2 whole entry, the tested form may be a part, canonical isoform): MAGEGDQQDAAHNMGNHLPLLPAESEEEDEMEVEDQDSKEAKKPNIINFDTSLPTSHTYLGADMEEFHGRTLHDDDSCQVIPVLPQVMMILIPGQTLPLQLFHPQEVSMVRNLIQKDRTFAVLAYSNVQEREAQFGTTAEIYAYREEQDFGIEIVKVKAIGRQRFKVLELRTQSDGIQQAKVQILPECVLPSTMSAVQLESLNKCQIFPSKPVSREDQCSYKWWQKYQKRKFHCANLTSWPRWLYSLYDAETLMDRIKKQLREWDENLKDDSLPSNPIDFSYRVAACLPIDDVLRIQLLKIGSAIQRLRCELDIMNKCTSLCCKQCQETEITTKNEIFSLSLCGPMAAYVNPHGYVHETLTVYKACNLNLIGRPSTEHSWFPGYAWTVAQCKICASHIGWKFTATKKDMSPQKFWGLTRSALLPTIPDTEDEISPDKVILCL
T1 sequence (Q9UJQ4 whole entry partner, the tested form may be a part, canonical isoform): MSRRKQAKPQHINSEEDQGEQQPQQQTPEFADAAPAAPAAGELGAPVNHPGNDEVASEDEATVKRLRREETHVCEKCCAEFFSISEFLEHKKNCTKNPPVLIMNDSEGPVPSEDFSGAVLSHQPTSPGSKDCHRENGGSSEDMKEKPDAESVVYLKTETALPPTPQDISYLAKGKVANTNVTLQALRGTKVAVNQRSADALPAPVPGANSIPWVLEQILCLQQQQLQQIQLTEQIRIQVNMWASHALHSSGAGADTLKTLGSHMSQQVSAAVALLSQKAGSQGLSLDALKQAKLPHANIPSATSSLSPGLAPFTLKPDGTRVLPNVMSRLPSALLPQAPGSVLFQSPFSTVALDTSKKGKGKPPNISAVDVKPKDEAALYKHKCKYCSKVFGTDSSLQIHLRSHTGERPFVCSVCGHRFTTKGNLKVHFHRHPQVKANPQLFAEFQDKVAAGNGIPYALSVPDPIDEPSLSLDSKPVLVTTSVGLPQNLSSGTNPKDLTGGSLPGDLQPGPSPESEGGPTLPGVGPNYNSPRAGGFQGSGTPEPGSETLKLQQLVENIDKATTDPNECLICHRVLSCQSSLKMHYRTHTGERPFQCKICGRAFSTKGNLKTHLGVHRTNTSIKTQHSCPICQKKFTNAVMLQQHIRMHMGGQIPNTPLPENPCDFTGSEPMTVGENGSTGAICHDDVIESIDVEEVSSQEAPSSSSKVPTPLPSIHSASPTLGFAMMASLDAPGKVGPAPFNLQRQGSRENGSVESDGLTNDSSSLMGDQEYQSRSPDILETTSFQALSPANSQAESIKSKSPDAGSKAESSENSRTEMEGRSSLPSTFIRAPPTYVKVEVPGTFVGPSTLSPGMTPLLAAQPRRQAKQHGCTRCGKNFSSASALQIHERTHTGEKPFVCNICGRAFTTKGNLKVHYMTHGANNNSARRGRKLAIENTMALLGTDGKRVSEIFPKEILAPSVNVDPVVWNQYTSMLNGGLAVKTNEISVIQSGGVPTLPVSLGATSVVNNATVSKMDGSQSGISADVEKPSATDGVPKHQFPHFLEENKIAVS
T1 sequence (Q16531 whole entry partner, the tested form may be a part, canonical isoform): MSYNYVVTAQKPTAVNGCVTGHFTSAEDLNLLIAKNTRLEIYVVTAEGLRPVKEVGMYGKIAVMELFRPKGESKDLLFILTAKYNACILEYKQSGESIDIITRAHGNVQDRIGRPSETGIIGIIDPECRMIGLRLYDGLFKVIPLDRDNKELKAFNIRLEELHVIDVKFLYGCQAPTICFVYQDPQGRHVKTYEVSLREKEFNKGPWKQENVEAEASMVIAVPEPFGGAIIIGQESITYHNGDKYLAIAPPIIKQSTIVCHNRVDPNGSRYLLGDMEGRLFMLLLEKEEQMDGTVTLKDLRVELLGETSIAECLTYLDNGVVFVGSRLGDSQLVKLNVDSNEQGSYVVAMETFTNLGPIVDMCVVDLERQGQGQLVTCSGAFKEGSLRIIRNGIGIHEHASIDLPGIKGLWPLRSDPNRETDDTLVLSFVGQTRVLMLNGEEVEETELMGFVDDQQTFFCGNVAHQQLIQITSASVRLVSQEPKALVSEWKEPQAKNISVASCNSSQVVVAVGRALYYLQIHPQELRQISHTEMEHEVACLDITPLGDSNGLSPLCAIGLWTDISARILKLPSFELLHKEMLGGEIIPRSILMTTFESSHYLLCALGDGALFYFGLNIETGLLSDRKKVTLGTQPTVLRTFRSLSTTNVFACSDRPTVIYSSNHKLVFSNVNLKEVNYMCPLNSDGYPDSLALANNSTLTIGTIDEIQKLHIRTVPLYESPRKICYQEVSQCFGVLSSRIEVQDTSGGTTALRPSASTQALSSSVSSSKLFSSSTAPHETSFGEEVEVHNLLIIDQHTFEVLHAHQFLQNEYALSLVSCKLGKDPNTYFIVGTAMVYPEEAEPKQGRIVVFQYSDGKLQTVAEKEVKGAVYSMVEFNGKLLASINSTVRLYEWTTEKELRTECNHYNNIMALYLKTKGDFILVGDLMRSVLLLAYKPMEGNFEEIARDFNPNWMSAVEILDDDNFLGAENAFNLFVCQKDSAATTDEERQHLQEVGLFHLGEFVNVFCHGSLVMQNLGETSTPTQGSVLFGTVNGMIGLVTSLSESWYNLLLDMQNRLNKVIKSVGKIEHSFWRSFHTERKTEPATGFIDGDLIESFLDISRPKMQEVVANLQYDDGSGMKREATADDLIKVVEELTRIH

Take `CN(C)C1c2ccccc2C(=O)N1C1CCC(=O)NC1=O` (stereo not drawn) [C10981, 3-[1-(dimethylamino)-3-oxo-isoindolin-2-yl]piperidine-2,6-dione]: the “Recruitment Assessment” value in experiment [1] was “TRUE”. Besides, the EC50 in experiment [2] amounted to 1460 nM.
On to `CCOC(=O)Nc1cccc2c1CN(C1CCC(=O)NC1=O)C2=O` (stereo not drawn) [C22622, ethyl N-[2-(2,6-dioxo-3-piperidyl)-1-oxo-isoindolin-4-yl]carbamate], for which the “Recruitment Assessment” value in experiment [1] is recorded as “TRUE”. Besides, in experiment [2], the EC50 is 121 nM.
As to `Cc1ccc2nnn(C3CCC(=O)NC3=O)c(=O)c2c1` (stereo not drawn) [C16463, 3-(6-methyl-4-oxo-1,2,3-benzotriazin-3-yl)piperidine-2,6-dione], in experiment [1], the “Recruitment Assessment” value is “TRUE”. Also, the EC50 in experiment [2] was 772 nM.
As for `O=C1CCC(N2C(=O)c3ccccc3C2O)C(=O)N1` (stereo not drawn) [C89940, 3-(1-hydroxy-3-oxo-isoindolin-2-yl)piperidine-2,6-dione], in experiment [1], the “Recruitment Assessment” value is reported as “TRUE”. For the same compound, in experiment [2], the EC50 turned out to be 438 nM.
Take `O=C1CCC(N2Cc3ccc(NCC(=O)NC4CCOC4)cc3C2=O)C(=O)N1` (stereo not drawn) [C12694, 2-[[2-(2,6-dioxo-3-piperidyl)-3-oxo-isoindolin-5-yl]amino]-N-tetrahydrofuran-3-yl-acetamide]: in experiment [1], the “Recruitment Assessment” value is given as “TRUE”. For the same compound, in experiment [2], the EC50 is 3430 nM.
For `O=C1CCC(N2Cc3cc(Nc4ncc5[nH]cnc5n4)ccc3C2=O)C(=O)N1` (stereo not drawn) [C80376, 3-[1-oxo-5-(7H-purin-2-ylamino)isoindolin-2-yl]piperidine-2,6-dione], in experiment [1], the “Recruitment Assessment” value is reported as “TRUE”. Besides, the EC50 in experiment [2] was 559 nM.
Consider `O=C1CCC(N2Cc3ccccc3C2)C(=O)N1` (stereo not drawn) [C87699, 3-isoindolin-2-ylpiperidine-2.6-dione], for which, in experiment [1], the “Recruitment Assessment” value is “TRUE”. For the same compound, the EC50 in experiment [2] worked out at 4820 nM.
`O=C1CCC(N2Cc3ncccc3C2=O)C(=O)N1` (stereo not drawn) [C47959, 3-(5-oxo-7H-pyrrolo[3,4-b]pyridin-6-yl)piperidine-2,6-dione]: the “Recruitment Assessment” value in experiment [1] is “TRUE”. Moreover, the EC50 in experiment [2] was determined as 441 nM.
`CN(C)CC(=O)Nc1cccc2c1CN(C1CCC(=O)NC1=O)C2=O` (stereo not drawn) [C22586, 2-(dimethylamino)-N-[2-(2,6-dioxo-3-piperidyl)-1-oxo-isoindolin-4-yl] acetamide]: in experiment [1], the “Recruitment Assessment” value is reported as “TRUE”. The EC50 in experiment [2] was 1140 nM.
The corresponding values for `N#Cc1cccc2c1CN(C1CCC(=O)NC1=O)C2=O` (stereo not drawn) [C48003, 2-(2,6-dioxo-3-piperidyl)-1-oxo-isoindoline-4-carbonitrile] are “TRUE” and 581 nM.
Turning to `O=C1CCC(N2C(=O)C3=C(CCC3)C2=O)C(=O)N1` (stereo not drawn) [C64324, 2-(2,6-dioxo-3-piperidyl)-5,6-dihydro-4H-cyclopenta[c] pyrrole-1,3-dione], the “Recruitment Assessment” value in experiment [1] was “FALSE”.
For the compound `O=C1CCC(N2C(=O)CC(NC(=O)OCc3ccccc3)C2=O)C(=O)N1` (stereo not drawn) [C64344, benzyl N-[1-(2,6-dioxo-3-piperidyl)-2,5-dioxo-pyrrolidin-3-yl]carbamate], the “Recruitment Assessment” value in experiment [1] was “FALSE”.
For `CC1CN(C(=O)CNc2ccc3c(c2)C(=O)N(C2CCC(=O)NC2=O)C3)CC(=O)N1` (stereo not drawn) [C12598, 3-[6-[[2-(3-methyl-5-oxo-piperazin-1-yl)-2-oxo-ethyl]amino]-1-oxo-isoindolin-2-yl]piperidine-2,6-dione], in experiment [1], the “Recruitment Assessment” value was “FALSE”.
As to `Cn1ncc2c(Nc3ccc4c(c3)CN(C3CCC(=O)NC3=O)C4=O)ncnc21` (stereo not drawn) [C80374, 3-[5-[(1-methylpyrazolo[3,4-d]pyrimidin-4-yl)amino]-1-oxo-isoindolin-2-yl]piperidine-2,6-dione], in experiment [1], the “Recruitment Assessment” value is “TRUE”.
In the case of `O=C1CCC(N2C(=O)c3ccccc3C2=O)C(=O)N1` (stereo not drawn) [THL, Thalidomide, reference compound], in experiment [1], the “Recruitment Assessment” value was “TRUE”.
The same measure, in the same setting: in the case of `O=C(O)CNc1ccc2c(c1)C(=O)N(C1CCC(=O)NC1=O)C2` (stereo not drawn) [C47997, 2-[[2-(2,6-dioxo-3-piperidyl)-3-oxo-isoindolin-5-yl]amino]acetic acid] it was “FALSE”.
Take `N#Cc1cccc2c1C(=O)N(C1CCC(=O)NC1=O)C2` (stereo not drawn) [C48009, 2-(2,6-dioxo-3-piperidyl)-3-oxo-isoindoline-4-carbonitrile]: in experiment [1], the “Recruitment Assessment” value was “FALSE”.
Regarding `O=C1CCC(N2Cc3ccc(C(F)(F)F)cc3C2=O)C(=O)N1` (stereo not drawn) [C45748, 3-[1-oxo-6-(trifluoromethyl)isoindolin-2-yl]piperidine-2,6-dione], in experiment [1], the “Recruitment Assessment” value is listed as “FALSE”.
Turning to `CC1CCCN(C(=O)CNc2ccc3c(c2)C(=O)N(C2CCC(=O)NC2=O)C3)C1` (stereo not drawn) [C12583, 3-[6-[[2-(3-methyl-1-piperidyl)-2-oxo-ethyl]amino]-1-oxo-isoindolin-2-yl]piperidine-2,6-dione], the “Recruitment Assessment” value in experiment [1] was “FALSE”.
Turning to `O=C1CCc2cc(C(=O)N3CCc4cccnc43)cnc2N1` [C36128, 6-(2,3-dihydropyrrolo[2,3-b]pyridine-1-carbonyl)-3,4-dihydro-1H-1,8-naphthyridin-2-one], the “Recruitment Assessment” value in experiment [1] is given as “FALSE”.
For `O=C1CCC(N2C(=O)c3ccccc3C2OCc2ccccc2)C(=O)N1` (stereo not drawn) [3-(1-benzyloxy-3-oxo-isoindolin-2-yl)piperidine-2,6-dione], in experiment [1], the “Recruitment Assessment” value is “FALSE”.
Consider `COc1cnccc1C(=O)Nc1ccc2c(c1)=NC(=O)N=2` [C36124, 3-methoxy-N-(2-oxobenzimidazol-5-yl)pyridine-4-carboxamide], for which the “Recruitment Assessment” value in experiment [1] is on record as “FALSE”.
In the case of `Nc1cccc2c(=O)n(C3CCC(=O)NC3=O)nnc12` (stereo not drawn) [C35833, 3-(8-amino-4-oxo-1,2,3-benzotriazin-3-yl)piperidine-2,6-dione], the “Recruitment Assessment” value in experiment [1] is recorded as “FALSE”.
For the compound `O=C(O)CNc1cccc2c1CN(C1CCC(=O)NC1=O)C2=O` (stereo not drawn) [2-[[2-(2,6-dioxo-3-piperidyl)-1-oxo-isoindolin-4-yl]amino]acetic acid], the “Recruitment Assessment” value in experiment [1] is recorded as “FALSE”.
For `Nc1cccc2c1CN(C1CC(=O)NC(=O)C1)C2=O` [C47927, 4-(4-amino-1-oxo-isoindolin-2-yl)piperidine-2,6-dione], in experiment [1], the “Recruitment Assessment” value is recorded as “TRUE”.
As for `O=C1CCC(N2Cc3ccc(NCC(=O)N4Cc5ccccc5C4)cc3C2=O)C(=O)N1` (stereo not drawn) [C95330, 3-[6-[(2-isoindolin-2-yl-2-oxo-ethyl)amino]-1-oxo-isoindolin-2-yl] piperidine-2,6-dione], the “Recruitment Assessment” value in experiment [1] was “FALSE”.
`O=C1CCC(Nc2ncccn2)C(=O)N1` (stereo not drawn) [C55468, 3-(pyrimidin-2-ylamino)piperidine-2,6-dione]: the “Recruitment Assessment” value in experiment [1] was “FALSE”.
On to `COc1cccc2c1C(=O)N(C1CCC(=O)NC1=O)C2` (stereo not drawn) [C29137, 3-(7-methoxy-1-oxo-isoindolin-2-yl)piperidine-2,6-dione], for which the “Recruitment Assessment” value in experiment [1] was “FALSE”.
Turning to `CN(C)c1ccc2c(c1)C(=O)N(C1CCC(=O)NC1=O)C2` (stereo not drawn) [C96622, 3-[6-(dimethylamino)-1-oxo-isoindolin-2-yl]piperidine-2,6-dione], the “Recruitment Assessment” value in experiment [1] is “FALSE”.
On the same count and under the same terms, in the case of `O=C1CCC(N2C(=O)C3CC=CCC3C2=O)C(=O)N1` (stereo not drawn) [C51647, 2-(2,6-dioxo-3-piperidyl)-3a,4,7,7a-tetrahydroisoindole-1,3-dione] it was “FALSE”.
With `O=C1CC=CC(C(=O)NC2CCC(=O)NC2=O)=N1` (stereo not drawn) [C98696, N-(2,6-dioxo-3-piperidyl)-2-oxo-3H-pyridine-6-carboxamide], the “Recruitment Assessment” value in experiment [1] is recorded as “FALSE”.
Still for that read-out and setting: in the case of `CN1CCN(C(=O)CNc2ccc3c(c2)C(=O)N(C2CCC(=O)NC2=O)C3)CC1=O` (stereo not drawn) [C12597, 3-[6-[[2-(4-methyl-3-oxo-piperazin-1-yl)-2-oxo-ethyl]amino]-1-oxo-isoindolin-2-yl]piperidine-2,6-dione] it was “FALSE”.
Regarding `O=C1CCC(N2C(=O)C=C(c3ccccc3)C2=O)C(=O)N1` (stereo not drawn) [C64319, 3-(2,5-dioxo-3-phenyl-pyrrol-1-yl)piperidine-2,6-dione], the “Recruitment Assessment” value in experiment [1] was “FALSE”.
Turning to `C=CCC1c2ccccc2C(=O)N1C1CCC(=O)NC1=O` (stereo not drawn) [C96413, 3-(1-allyl-3-oxo-isoindolin-2-yl)piperidine-2,6-dione], the “Recruitment Assessment” value in experiment [1] was “FALSE”.
`Nc1cccc2c1CN(C1CCS(=O)(=O)NC1=O)C2=O` (stereo not drawn) [C55859, 4-(4-Amino-1-oxoisoindolin-2yl)-1,2-thiazinan-3-one 1,1-dioxide]: the “Recruitment Assessment” value in experiment [1] is on record as “FALSE”.
On to `Nc1cccc2c1CN(C1CCCC(=O)NC1=O)C2=O` (stereo not drawn) [C47932, 3-(4-amino-1-oxo-isoindolin-2-yl)azepane-2,7-dione], for which the “Recruitment Assessment” value in experiment [1] is reported as “TRUE”.
With `CC1CCCCN1C(=O)CNc1ccc2c(c1)C(=O)N(C1CCC(=O)NC1=O)C2` (stereo not drawn) [C12584, 3-[6-[[2-(2-methyl-1-piperidyl)-2-oxo-ethyl]amino]-1-oxo-isoindolin-2-yl]piperidine-2,6-dione], in experiment [1], the “Recruitment Assessment” value is “FALSE”.
In the case of `O=C1CCC(N2Cc3cc(Nc4ncnc5sccc45)ccc3C2=O)C(=O)N1` (stereo not drawn) [C80370, 3-[1-oxo-5-(thieno[2,3-d]pyrimidin-4-ylamino)isoindolin-2-yl] piperidine-2,6-dione], the “Recruitment Assessment” value in experiment [1] is reported as “FALSE”.

(Values after patent US20230111853A1, “COMPOUNDS MODULATING PROTEIN RECRUITMENT AND/OR DEGRADATION” (Orionis Biosciences, Inc., priority 2019, published 2023).)
